Results from US20230189821A1, “PESTICIDAL COMPOSITIONS WITH ENHANCED PHYSICAL CHARACTERISTICS” (Terramera, Inc., priority 2020, published 2023).

Assay: Melting point of oil/aliphatic acid mixtures by differential scanning calorimeter (DSC)
Assay type: physicochemical
Protocol: Eleven exemplary pesticidal compositions, each comprising a different mixture ratio of neem oil and octanoic acid, were prepared according to the following description. Each composition comprised a combined 10-20 mg of cold-pressed neem oil and octanoic acid. The neem oil and octanoic acid were passively mixed by commingling in liquid phase in the testing vessel (an aluminum pan with an aluminum cap) at a temperature above each ingredient's melting point. Mixture ratios were determined by weight—e.g. a 10 mg mixture in 60:40 ratio would comprise 6 mg of neem oil and 4 mg of octanoic acid. The mixture's melting point was then measured by a differential scanning calorimeter (DSC), and particularly by a TA Instruments® DSC Q2000™ differential scanning calorimeter. The following method was used for DSC measurement of each mixture: the mixture was equilibrated at 40° C., then isothermally held for 15 minutes, then equilibrated at −30° C., and then ramped at 5° C./minute to 70° C. […]
(§1) Eleven exemplary pesticidal compositions, each comprising a different mixture ratio of palm oil and octanoic acid, were prepared according to the following description. […] Mixture ratios were determined by weight—e.g. a 10 mg mixture in 60:40 ratio would comprise 6 mg of palm oil and 4 mg of octanoic acid. The mixture's melting point was then measured by differential scanning calorimeter. […]
as §1, with “coconut” for “palm”
as §1, with “karanja” for “palm”, “acid.” for “acid. The mixture's melting point was then measured by differential scanning calorimeter.”

| Melting Point | Structure (SMILES) |
| --- | --- |
| about 11.36 °C | CC/C=C/CC(=O)O [trans-3 hexenoic acid] |
| about 11.31 °C | CCCCCCCC/C=C\CCCCCCCC(=O)O [oleic acid] |
| about 11.36 °C | CCCCCCCCCC(=O)O [decanoic acid] |
